Laboratory results published in article PMC3266270, “Biochemical Discrimination between Selenium and Sulfur 1: A Single Residue Provides Selenium Specificity to Human Selenocysteine Lyase” (PLoS ONE, 2012).

Assays:
[1] = molecular target: T1, hSCL (human selenocysteine lyase) (Homo sapiens, UniProt Q96I15); assay: X-ray crystal structure; format: binding; conditions: P2_12_12_1 crystal, 2.1 Å; pH 6.7; copurified cofactor; active site at homodimer interface
T1 construct: gene SCLY; residues 8-445, N-terminal His6-TEV tag cleaved before assay and crystallization; E. coli BL21(DE3); homodimer
T1 sequence (Q96I15 8-445): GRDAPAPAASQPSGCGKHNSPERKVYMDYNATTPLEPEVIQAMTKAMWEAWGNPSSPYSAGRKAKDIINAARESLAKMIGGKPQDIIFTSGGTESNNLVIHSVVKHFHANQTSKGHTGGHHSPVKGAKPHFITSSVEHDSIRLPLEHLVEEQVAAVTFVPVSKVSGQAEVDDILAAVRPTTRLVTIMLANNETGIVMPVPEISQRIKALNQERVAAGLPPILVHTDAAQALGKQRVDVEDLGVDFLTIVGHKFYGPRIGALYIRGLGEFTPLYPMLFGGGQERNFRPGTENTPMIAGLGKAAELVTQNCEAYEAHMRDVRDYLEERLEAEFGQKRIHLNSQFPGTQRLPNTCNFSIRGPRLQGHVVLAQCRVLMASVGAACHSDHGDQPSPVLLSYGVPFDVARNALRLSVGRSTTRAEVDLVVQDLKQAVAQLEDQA

[2] = molecular target: T1, hSCL (human selenocysteine lyase); assay: alanine dehydrogenase-coupled detection of product alanine; format: biochemical; conditions: 5 mM seleno-L-cystine reduced in situ by 50 mM DTT (10 mM Sec equivalent), 0.2 mM PLP, pH 8.5, 37 °C, under nitrogen; time course only
[3] = molecular target: the molecule itself; assay: crystal structure; hSCL with PLP, His-tag cleaved; two crystal forms: P2(1)2(1)2(1), 2.1 A, 100 mM HEPES pH 6.7, 10% PEG6000, one dimer per asymmetric unit; P1, 1.8 A, 50 mM HEPES pH 8.1, 200 mM ammonium nitrate, 25% PEG3350, soaked with 10 mM L-cysteine for 2 h, two dimers per asymmetric unit; crystals grown at 20 C

Molecule: Cc1ncc(COP(=O)(O)O)c(C=O)c1O [PLP]
- X-ray crystal structure [1]: Human SCL homodimer in complex with the co-factor PLP.

Molecule: N[C@@H](C[SeH])C(=O)O [Sec]
- alanine dehydrogenase-coupled detection of product alanine [2]: The activity with Sec observed in the wild-type enzyme was not altered

B1: human selenocysteine lyase (hSCL), residues 8-445 (enzyme, UniProt Q96I15 8-445, looked up)
chain: T1 sequence (Q96I15 8-445)
notes: human selenocysteine lyase (hSCL), residues 8-445, cDNA clone from the Mammalian Gene Collection (GenBank BC007891.2), cloned in pNIC-Bsa4; residues 120-132 are disordered; A few vector residues probably remain at the N-terminus after TEV cleavage (surmised; also called human SCL; Sec lyase; source: His-tag removed with TEV protease); not shown: His6, N-terminal, cleaved
- stoichiometry N [3]: 2
